Reference: patent US20140249084A1, “PTH-CONTAINING THERAPEUTIC/PROPHYLACTIC AGENT FOR OSTEOPOROSIS, CHARACTERIZED IN THAT PTH IS ADMINISTERED ONCE A WEEK IN A UNIT DOSE OF 100 TO 200 UNITS” (ASAHI KASEI PHARMA CORPORATION, priority 2009, published 2014)

Experiments:
Assay type in all cases: in vivo, human
[1] = test system: patients diagnosed with primary osteoporosis; test: New vertebral fractures by x-ray (method of Genant), Working Example 1; settings: for Incidence (%) / No. of fractures / No. with fractures: new vertebral fractures every 26 weeks; for No. of vertebral fractures / No. with fractures (persons): new vertebral fractures
Procedure: Both the 5 and 100 unit groups were administered two tablets of a calcium agent (containing 500 mg of precipitated calcium carbonate [200 mg as calcium] per tablet) once a day.
The osteoporosis patients were classified as condition shown in Table 1 based on the bone fracture risk factors present, as in Non-patent Reference 13, and compared. High-risk patients were defined as having all three factors involving age, prevalent vertebral fractures, and bone density or bone atrophy; low-risk patients were defined as other than the above.

[2] = test system: high-risk patients diagnosed with primary osteoporosis; test: New vertebral fractures (incl. multiple), Working Example 2 (200 units once a week vs placebo, 72 weeks); settings: for New vertebral fractures: Incidence (%) / New vertebral fractures: No. of subjects: 72 weeks; for No. with fractures: new vertebral fractures
From the text: The above patients also took two tablets of a calcium agent once a day after dinner. […] The preparation contained precipitated calcium carbonate, magnesium carbonate, cholecalciferol (vitamin D3), and the like as components and is marketed under the trade name New Calcichew (trademark) D3″ (sold by: Daiichi Sankyo Health Care, manufactured and sold by: Nitto Pharmaceutical Industries, Ltd.).
The numbers of patients administered the test drug and control were 290 (also sometimes referred to as the test drug group in the working example) and 288 (also sometimes referred to as the control group in the working example), respectively. The total number administered was 578. However, the number in each group sometimes differs depending on the type of test and is expressed, for example, by (n=**) or the number evaluated, or the like.
(§1) The incidence of bone fractures was checked by frontal and lateral x-rays of the fourth thoracic to the fourth lumbar spine taken at the start and every 24 weeks thereafter.
Here, “multiple vertebral fractures” was defined as two or more new vertebral fractures. When the incidence of multiple vertebral fractures (number of cases) was compared in the test drug group (n=261) and control group (n=281) after 72 weeks of administration, it was 2.1% (6 cases) in the control group and 0.8% (2 cases) in the test drug group.

[3] = test system: high-risk patients diagnosed with primary osteoporosis; test: Vertebral fractures (new+worsening), Kaplan-Meier estimation, Working Example 2; settings: after 72 weeks; FAS; 200 units once a week
From the text: as §1
The incidence of vertebral fractures (new±worsening) after 72 weeks by Kaplan-Meier estimation in the FAS of the fracture study was 3.5% in the PTH200 group and 16.3% in the P group. The incidence with 200 units of this drug was lower than in the placebo group (log rank test, p<0.0001). […] When the six-month vertebral fracture (new+worsening) incidence was compared between groups, the incidence of the PTH200 group was lower than that of the P group in all divisions consisting of within 24 weeks, 24 to 48 weeks, and 48 to 72 weeks.

[4] = high-risk patients, 5 units once a week, After 26 W
[5] = high-risk patients, 5 units once a week, After 52 W
[6] = high-risk patients, 5 units once a week, After 78 W
[7] = high-risk patients, 5 units once a week, After 104 W
[8] = high-risk patients, 5 units once a week, After 130 W
[9] = high-risk patients, 100 units once a week, After 26 W
[10] = high-risk patients, 100 units once a week, After 52 W
[11] = high-risk patients, 100 units once a week, After 78 W
[12] = high-risk patients, 100 units once a week, After 104 W
[13] = high-risk patients, 100 units once a week, After 130 W
[14] = low-risk patients, 5 units once a week, After 26 W
[15] = low-risk patients, 5 units once a week, After 52 W
[16] = low-risk patients, 5 units once a week, After 78 W
[17] = low-risk patients, 5 units once a week, After 104 W
[18] = low-risk patients, 5 units once a week, After 130 W
[19] = low-risk patients, 100 units once a week, After 26 W
[20] = low-risk patients, 100 units once a week, After 52 W
[21] = low-risk patients, 100 units once a week, After 78 W
[22] = low-risk patients, 100 units once a week, After 104 W
[23] = low-risk patients, 100 units once a week, After 130 W
[24] = high-risk patients, 5 units once a week
[25] = high-risk patients, 100 units once a week
[26] = low-risk patients, 5 units once a week
[27] = low-risk patients, 100 units once a week
[28] = No. of fractures: Five or more, 200 units once a week
[29] = No. of fractures: Four, 200 units once a week
[30] = No. of fractures: One, 200 units once a week
[31] = No. of fractures: Three, 200 units once a week
[32] = No. of fractures: Two, 200 units once a week
[33] = history of Alfacalcidol, 200 units once a week
[34] = history of Calcitriol, 200 units once a week
[35] = history of Calcium L-aspartate, 200 units once a week
[36] = history of Calcium lactate, 200 units once a week
[37] = history of Elcatonin, 200 units once a week
[38] = history of Menatetrenone, 200 units once a week
[39] = history of Raloxifene hydrochloride, 200 units once a week
[40] = patients taking glucocorticoid, 200 units once a week
[41] = two or more new vertebral fractures, after 72 weeks, 200 units once a week

Substance: teriparatide acetate
- Incidence (%) [1, 4]: 9.5%
- No. of fractures [1, 4]: 8
- No. with fractures [1, 4]: 6
- Incidence (%) [1, 5]: 11.1%
- No. of fractures [1, 5]: 9
- No. with fractures [1, 5]: 7
- Incidence (%) [1, 6]: 7.0%
- No. of fractures [1, 6]: 4
- No. with fractures [1, 6]: 4
- Incidence (%) [1, 7]: 2.9%
- No. of fractures [1, 7]: 1
- No. with fractures [1, 7]: 1
- No. of fractures [1, 8]: 0
- No. with fractures [1, 8]: 0
- Incidence (%) [1, 9]: 2.0%
- No. of fractures [1, 9]: 1
- No. with fractures [1, 9]: 1
- Incidence (%) [1, 10]: 2.0%
- No. of fractures [1, 10]: 1
- No. with fractures [1, 10]: 1
- Incidence (%) [1, 11]: 2.2%
- No. of fractures [1, 11]: 1
- No. with fractures [1, 11]: 1
- No. of fractures [1, 12]: 0
- No. with fractures [1, 12]: 0
- No. of fractures [1, 13]: 0
- No. with fractures [1, 13]: 0
- No. of fractures [1, 14]: 0
- No. with fractures [1, 14]: 0
- Incidence (%) [1, 15]: 4.8%
- No. of fractures [1, 15]: 1
- No. with fractures [1, 15]: 1
- No. of fractures [1, 16]: 0
- No. with fractures [1, 16]: 0
- No. of fractures [1, 17]: 0
- No. with fractures [1, 17]: 0
- No. of fractures [1, 18]: 0
- No. with fractures [1, 18]: 0
- Incidence (%) [1, 19]: 8.3%
- No. of fractures [1, 19]: 2
- No. with fractures [1, 19]: 1
- No. of fractures [1, 20]: 0
- No. with fractures [1, 20]: 0
- No. of fractures [1, 21]: 0
- No. with fractures [1, 21]: 0
- No. of fractures [1, 22]: 0
- No. with fractures [1, 22]: 0
- No. of fractures [1, 23]: 0
- No. with fractures [1, 23]: 0
- No. of vertebral fractures [1, 24]: 22
- No. with fractures (persons) [1, 24]: 13 persons
- No. of vertebral fractures [1, 25]: 3
- No. with fractures (persons) [1, 25]: 3 persons
- No. of vertebral fractures [1, 26]: 1
- No. with fractures (persons) [1, 26]: 1 persons
- No. of vertebral fractures [1, 27]: 2
- No. with fractures (persons) [1, 27]: 1 persons
- Occurrence of new vertebral fractures after 48 weeks ([2]; 48 to 72 weeks division, 200 units once a week): no new vertebral fractures occurred after 48 weeks
- New vertebral fractures, No. with fractures ([2]; FAS, No. evaluated 261): 7
- Difference between PTH200 group and P group after 72 W (%) ([2]; FAS, incidence of new vertebral fractures after 72 W): 11.4%
- New vertebral fractures: Incidence (%) [2, 28]: 0.0%
- New vertebral fractures: No. of subjects [2, 28]: 0
- New vertebral fractures: Incidence (%) [2, 29]: 0.0%
- New vertebral fractures: No. of subjects [2, 29]: 0
- New vertebral fractures: Incidence (%) [2, 30]: 1.9%
- New vertebral fractures: No. of subjects [2, 30]: 5
- New vertebral fractures: Incidence (%) [2, 31]: 0.0%
- New vertebral fractures: No. of subjects [2, 31]: 0
- New vertebral fractures: Incidence (%) [2, 32]: 0.8%
- New vertebral fractures: No. of subjects [2, 32]: 2
- New vertebral fractures, No. with fractures ([2]; Time after administration >24 W-≦48 W, No. evaluated 219): 2
- New vertebral fractures, No. with fractures ([2]; Time after administration >48 W-≦72 W, No. evaluated 206): 0
- New vertebral fractures, No. with fractures ([2]; Time after administration ≦24 W, No. evaluated 261): 6
- Incidence of new vertebral fractures (%) ([2]; creatinine clearance at start Abnormal (<80), After 24 W, 200 units once a week): 2.8%
- Incidence of new vertebral fractures (%) ([2]; creatinine clearance at start Abnormal (<80), After 48 W, 200 units once a week): 3.4%
- Incidence of new vertebral fractures (%) ([2]; creatinine clearance at start Abnormal (<80), After 72 W, 200 units once a week): 3.4%
- Incidence of new vertebral fractures (%) ([2]; creatinine clearance at start Normal (≧80), After 24 W, 200 units once a week): 0.0%
- Incidence of new vertebral fractures (%) ([2]; creatinine clearance at start Normal (≧80), After 48 W, 200 units once a week): 0.0%
- Incidence of new vertebral fractures (%) ([2]; creatinine clearance at start Normal (≧80), After 72 W, 200 units once a week): 0.0%
- New vertebral fractures: No [2, 33]: 62
- New vertebral fractures: Yes [2, 33]: 1
- New vertebral fractures: No [2, 34]: 7
- New vertebral fractures: Yes [2, 34]: 1
- New vertebral fractures: No [2, 35]: 28
- New vertebral fractures: Yes [2, 35]: 1
- New vertebral fractures: No [2, 36]: 8
- New vertebral fractures: Yes [2, 36]: 0
- New vertebral fractures: No [2, 37]: 35
- New vertebral fractures: Yes [2, 37]: 2
- New vertebral fractures: No [2, 38]: 6
- New vertebral fractures: Yes [2, 38]: 0
- New vertebral fractures: No [2, 39]: 20
- New vertebral fractures: Yes [2, 39]: 0
- No. with fractures ([2]; Complication (diabetes): No, 200 units once a week): 7
- No. with fractures ([2]; Complication (diabetes): Yes, 200 units once a week): 0
- No. with fractures ([2]; Complication (hyperlipidemia): No, 200 units once a week): 4
- No. with fractures ([2]; Complication (hyperlipidemia): Yes, 200 units once a week): 3
- No. with fractures ([2]; Complication (hypertension): No, 200 units once a week): 3
- No. with fractures ([2]; Complication (hypertension): Yes, 200 units once a week): 4
- No. with fractures ([2]; Prior osteoporosis treatment (no), 200 units once a week): 4
- No. with fractures ([2]; Prior osteoporosis treatment (yes), 200 units once a week): 3
- No. with fractures ([2]; creatinine clearance at start Abnormal (<80), 200 units once a week): 6
- No. with fractures ([2]; creatinine clearance at start Normal (≧80), 200 units once a week): 0
- Existence of new vertebral fractures, Fracture: no [2, 40]: 29
- Existence of new vertebral fractures, Fracture: yes [2, 40]: 0
- Incidence of multiple vertebral fractures [2, 41]: 0.8%
- Multiple vertebral fractures (number of cases) [2, 41]: 2 cases
- Incidence of vertebral fractures (new±worsening) by Kaplan-Meier estimation [3]: 3.5%
